Patent publication US20150150888A1, “COMBINATION OF SELECTIVE PROGESTERONE-RECEPTOR MODULATORS AND NONSTEROIDAL ANTI-INFLAMMATORY DRUGS” (LABORATOIRE HRA-PHARMA, priority 2012, published 2015)

Columns and labels:
[1] = tested on: LH-induced ovarian follicle rupture; assay: ovarian hyperstimulation (superovulation) model: counting the oocytes released into the oviducts; type: in vivo, CD1 mice; details: for number of oocytes released into the oviducts compared with the control group: oocytes counted 18 h after hCG
Description: The effect of the combined administration of ulipristal acetate (UPA) and of a non-steroidal anti-inflammatory agent (NSAID) on LH-induced ovarian follicle rupture was evaluated in an animal model of ovarian hyperstimulation (superovulation model).
(§1) 24 to 28-day-old immature CD1 mice were subjected to ovarian hyperstimulation by injection of 5 IU of PMSG (pregnant mare's serum gonadotropin) followed, 48 h later, by 5 IU of hCG (chorionic gonadotropin hormone) intraperitoneally. The mice were divided up into several groups, each of 10 mice. 8 hours after the hCG injection, the mice were administered, intraperitoneally, with either the compound(s) to be tested, or the placebo (vehicle). The mice were euthanized 18 hours after the hCG injection. The effect of the compound(s) on follicular rupture and therefore ovulation was determined by counting the oocytes released into the oviducts. In experiment series No. 2, a morphological and histological examination of the ovaries was carried out so as to evaluate the presence of unruptured follicles and/or of yellow bodies in the ovaries of each group of animals.
Series 1: • Group 1: placebo • Group 2: 3 mg/kg of piroxicam • Group 3: 10 mg/kg of piroxicam • Group 4: 30 mg/kg of piroxicam.
Series 2: • Group 1: placebo • Group 2: 40 mg/kg of ulipristal acetate • Group 3: 40 mg/kg of ulipristal acetate+3 mg/kg of piroxicam • Group 4: 40 mg/kg of ulipristal acetate+30 mg/kg of piroxicam. […]

[2] = tested on: LH-induced ovarian follicle rupture; assay: morphological and histological examination of the ovaries (unruptured follicles, yellow bodies) in the superovulation model; type: in vivo, CD1 mice; details: 40 mg/kg UPA in the absence of piroxicam, compared with groups 3 and 4
Description: as §1

follicular rupture = details: administration after the LH peak; cited from earlier work
[3] = single dose of 30 mg within 72 or 120 hours after sexual intercourse; cited from earlier work

Compound: CC(C)Cc1ccc(C(C)C(=O)O)cc1 (stereo not drawn) [ibuprofen]
- effect on ovulation compared with the control group ([1]; ibuprofen alone, dose between 15 mg and 150 mg (per kg)): no significant effect

Compound: CN1C(C(=O)Nc2ccccn2)=C(O)c2ccccc2S1(=O)=O [piroxicam]
- number of oocytes released into the oviducts compared with the control group ([1]; piroxicam 3 mg/kg i.p. 8 h after hCG): does not significantly reduce
- number of oocytes released into the oviducts compared with the control group ([1]; piroxicam 10 mg/kg i.p. 8 h after hCG): does not significantly reduce
- number of oocytes released into the oviducts compared with the control group ([1]; piroxicam 30 mg/kg i.p. 8 h after hCG): significantly reduce

Compound: CC(=O)O[C@]1(C(C)=O)CCC2C3CCC4=CC(=O)CCC4=C3[C@@H](c3ccc(N(C)C)cc3)C[C@@]21C (stereo partly drawn) [ulipristal acetate, 17α-acetoxy-11β-[4-N,N-dimethylaminophenyl)-19-norpregna-4,9-diene-3,20-dione]
- mean number of oocytes released compared with the control group ([1]; 40 mg/kg UPA 8 h after hCG injection, piroxicam series 2): approximately −50%
- number of oocytes released compared with the control group ([1]; group 2: 40 mg/kg ulipristal acetate, ibuprofen series 2): significant decrease
- yellow bodies (corpus luteum) in histological sections [2]: more numerous
- inhibition of follicular rupture during the 5 days following administration, cases (follicular rupture): 8.3%
- prevention of unwanted pregnancy after unprotected or poorly protected sexual intercourse [3]: safe and effective
